# Experimental data published in PubChem BioAssay (NCI).
#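 Protocol summary: plate cells (96-well), add compound at 5 concentrations, incubate 48 h, interpolate endpoints linearly. The concentration for 50% growth inhibition is given as GI50. TGI: concentration producing complete growth inhibition.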
# What was measured:
# Test in all cases: DTP human tumour cell line panel, 48 h
# COLO 205 colon = test system: COLO 205 colon
# RPMI-8226 leukemia = test system: RPMI-8226 leukemia
# OVCAR-4 ovarian = test system: OVCAR-4 ovarian
# SNB-75 CNS = test system: SNB-75 CNS
# NCI-H522 lung = test system: NCI-H522 lung
# NCI-H226 lung = test system: NCI-H226 lung
# MALME-3M melanoma = test system: MALME-3M melanoma
# SK-MEL-5 melanoma = test system: SK-MEL-5 melanoma
# UACC-62 melanoma = test system: UACC-62 melanoma
# MDA-MB-231 breast = test system: MDA-MB-231 breast
# A498 renal = test system: A498 renal
# SR leukemia = test system: SR leukemia
# SF-295 CNS = test system: SF-295 CNS
# BT-549 breast = test system: BT-549 breast
# UO-31 renal = test system: UO-31 renal
# CCRF-CEM leukemia = test system: CCRF-CEM leukemia
# MCF7 breast = test system: MCF7 breast
# SK-MEL-28 melanoma = test system: SK-MEL-28 melanoma
# 786-0 renal = test system: 786-0 renal
# NCI-H23 lung = test system: NCI-H23 lung
# PC-3 prostate = test system: PC-3 prostate
# HOP-62 NSCLC = test system: HOP-62 NSCLC
# MDA-MB-435 = test system: MDA-MB-435
# EKVX NSCLC = test system: EKVX NSCLC
# LOX IMVI melanoma = test system: LOX IMVI melanoma
# HCC-2998 colon = test system: HCC-2998 colon
# K-562 leukemia = test system: K-562 leukemia
# SF-539 CNS = test system: SF-539 CNS
# HCT-15 colon = test system: HCT-15 colon
# OVCAR-5 ovarian = test system: OVCAR-5 ovarian
# UACC-257 melanoma = test system: UACC-257 melanoma
# HT29 colon = test system: HT29 colon
# HS 578T breast = test system: HS 578T breast
# SN12C renal = test system: SN12C renal
# OVCAR-3 ovarian = test system: OVCAR-3 ovarian
# RXF 393 renal = test system: RXF 393 renal
# U251 CNS = test system: U251 CNS
# A549 NSCLC = test system: A549 NSCLC
# ACHN renal = test system: ACHN renal
# DU-145 prostate = test system: DU-145 prostate
# HOP-92 NSCLC = test system: HOP-92 NSCLC
# T-47D breast = test system: T-47D breast
# OVCAR-8 ovarian = test system: OVCAR-8 ovarian
# NCI/ADR-RES ovarian = test system: NCI/ADR-RES ovarian
# KM12 colon = test system: KM12 colon
# NCI-H460 lung = test system: NCI-H460 lung
# HL-60(TB) leukemia = test system: HL-60(TB) leukemia
# TK-10 renal = test system: TK-10 renal
# IGROV1 ovarian = test system: IGROV1 ovarian
# SK-OV-3 ovarian = test system: SK-OV-3 ovarian
# CAKI-1 renal = test system: CAKI-1 renal
# SNB-19 CNS = test system: SNB-19 CNS
# SF-268 CNS = test system: SF-268 CNS
# SW-620 colon = test system: SW-620 colon
# M14 melanoma = test system: M14 melanoma
# SK-MEL-2 melanoma = test system: SK-MEL-2 melanoma
# MOLT-4 leukemia = test system: MOLT-4 leukemia
# HCT-116 colon = test system: HCT-116 colon
compound,measurement,setting,value
CCNCCCn1c2c(c3cc(OC)c(OC)cc3c1=O)C(=O)c1cc(OC)cnc1-2,GI50,COLO 205 colon,1.38 µM
same,TGI,COLO 205 colon,> 53.5 µM
same,GI50,RPMI-8226 leukemia,0.44 µM
same,TGI,RPMI-8226 leukemia,4.86 µM
same,GI50,OVCAR-4 ovarian,2.56 µM
same,TGI,OVCAR-4 ovarian,18.7 µM
same,GI50,SNB-75 CNS,0.474 µM
same,TGI,SNB-75 CNS,3.45 µM
same,GI50,NCI-H522 lung,0.197 µM
same,TGI,NCI-H522 lung,19.6 µM
same,GI50,NCI-H226 lung,1.28 µM
same,TGI,NCI-H226 lung,> 35.8 µM
same,GI50,MALME-3M melanoma,10.9 µM
same,TGI,MALME-3M melanoma,36.6 µM
same,GI50,SK-MEL-5 melanoma,0.794 µM
same,TGI,SK-MEL-5 melanoma,3.3 µM
same,GI50,UACC-62 melanoma,0.388 µM
same,TGI,UACC-62 melanoma,8.21 µM
same,GI50,MDA-MB-231 breast,2.66 µM
same,TGI,MDA-MB-231 breast,20.3 µM
same,GI50,A498 renal,28 µM
same,TGI,A498 renal,> 58.2 µM
same,GI50,SR leukemia,0.0685 µM
same,TGI,SR leukemia,3.29 µM
same,GI50,SF-295 CNS,0.159 µM
same,TGI,SF-295 CNS,11.2 µM
same,GI50,BT-549 breast,1.32 µM
same,TGI,BT-549 breast,25.5 µM
same,GI50,UO-31 renal,0.615 µM
same,TGI,UO-31 renal,> 47.2 µM
same,GI50,CCRF-CEM leukemia,0.122 µM
same,TGI,CCRF-CEM leukemia,23.3 µM
same,GI50,MCF7 breast,0.12 µM
same,TGI,MCF7 breast,13 µM
same,GI50,SK-MEL-28 melanoma,48.5 µM
same,TGI,SK-MEL-28 melanoma,> 63.1 µM
same,GI50,786-0 renal,0.718 µM
same,TGI,786-0 renal,6.4 µM
same,GI50,NCI-H23 lung,0.736 µM
same,TGI,NCI-H23 lung,7.18 µM
same,GI50,PC-3 prostate,1.84 µM
same,TGI,PC-3 prostate,26.8 µM
same,GI50,HOP-62 NSCLC,0.213 µM
same,TGI,HOP-62 NSCLC,2.64 µM
same,GI50,MDA-MB-435,1.99 µM
same,TGI,MDA-MB-435,> 55.6 µM
same,GI50,EKVX NSCLC,15.7 µM
same,TGI,EKVX NSCLC,> 58.6 µM
same,GI50,LOX IMVI melanoma,0.313 µM
same,TGI,LOX IMVI melanoma,2.32 µM
same,GI50,HCC-2998 colon,1.67 µM
same,TGI,HCC-2998 colon,29.5 µM
same,GI50,K-562 leukemia,0.256 µM
same,TGI,K-562 leukemia,22.9 µM
same,GI50,SF-539 CNS,0.432 µM
same,TGI,SF-539 CNS,2.14 µM
same,GI50,HCT-15 colon,1.39 µM
same,TGI,HCT-15 colon,19.7 µM
same,GI50,OVCAR-5 ovarian,3.89 µM
same,TGI,OVCAR-5 ovarian,35.1 µM
same,GI50,UACC-257 melanoma,1.98 µM
same,TGI,UACC-257 melanoma,> 55 µM
same,GI50,HT29 colon,0.462 µM
same,TGI,HT29 colon,2.77 µM
same,GI50,HS 578T breast,> 43.9 µM
same,TGI,HS 578T breast,> 70.3 µM
same,GI50,SN12C renal,0.837 µM
same,TGI,SN12C renal,> 51.4 µM
same,GI50,OVCAR-3 ovarian,1.4 µM
same,TGI,OVCAR-3 ovarian,18.7 µM
same,GI50,RXF 393 renal,1.03 µM
same,TGI,RXF 393 renal,4.77 µM
same,GI50,U251 CNS,0.267 µM
same,TGI,U251 CNS,9.16 µM
same,GI50,A549 NSCLC,2.1 µM
same,TGI,A549 NSCLC,33.8 µM
same,GI50,ACHN renal,0.341 µM
same,TGI,ACHN renal,29.3 µM
same,GI50,DU-145 prostate,0.639 µM
same,TGI,DU-145 prostate,15 µM
same,GI50,HOP-92 NSCLC,4.03 µM
same,TGI,HOP-92 NSCLC,> 60.3 µM
same,GI50,T-47D breast,0.711 µM
same,TGI,T-47D breast,> 100 µM
same,GI50,OVCAR-8 ovarian,1.2 µM
same,TGI,OVCAR-8 ovarian,20.1 µM
same,GI50,NCI/ADR-RES ovarian,1.04 µM
same,TGI,NCI/ADR-RES ovarian,27.2 µM
same,GI50,KM12 colon,3.33 µM
same,TGI,KM12 colon,50 µM
same,GI50,NCI-H460 lung,0.153 µM
same,TGI,NCI-H460 lung,5.11 µM
same,GI50,HL-60(TB) leukemia,1.04 µM
same,TGI,HL-60(TB) leukemia,11.8 µM
same,GI50,TK-10 renal,> 50.4 µM
same,TGI,TK-10 renal,> 66.4 µM
same,GI50,IGROV1 ovarian,1.02 µM
same,TGI,IGROV1 ovarian,> 52.8 µM
same,GI50,SK-OV-3 ovarian,0.471 µM
same,TGI,SK-OV-3 ovarian,2.06 µM
same,GI50,CAKI-1 renal,0.339 µM
same,TGI,CAKI-1 renal,> 50 µM
same,GI50,SNB-19 CNS,0.529 µM
same,TGI,SNB-19 CNS,> 51.3 µM
same,GI50,SF-268 CNS,0.765 µM
same,TGI,SF-268 CNS,> 63.1 µM
same,GI50,SW-620 colon,0.358 µM
same,TGI,SW-620 colon,19.3 µM
same,GI50,M14 melanoma,0.517 µM
same,TGI,M14 melanoma,25.8 µM
same,GI50,SK-MEL-2 melanoma,> 38.9 µM
same,TGI,SK-MEL-2 melanoma,> 75.9 µM
same,GI50,MOLT-4 leukemia,0.0953 µM
same,TGI,MOLT-4 leukemia,8.08 µM
same,GI50,HCT-116 colon,0.376 µM
same,TGI,HCT-116 colon,6.59 µM
